Where two headings read alike, the source gives them in different places.
Legend:
[1] = test system: Dissociated cortical neuron cultures; assay: cortical neuron assay (neurite outgrowth); type: cell-based; conditions: Cortical neurone, rat E15 cortical neurons, compound for 72 hours, read-out: EC50 in cortical neuron assays
Method: Dissociated cortical neuron cultures were prepared as previously described (Pong et al., 2001). Briefly, embryonic day 15 rat fetuses were collected and dissected in ice-cold PBS. Dissected cortices were pooled together and transferred to an enzymatic dissociation medium containing papain. After 30 minutes, the tissue was mechanically triturated with a fire-polished glass Pasteur pipette. Single-cell suspensions in complete media were seeded on poly-L-ornithine and laminin coated 96-well plates. After 24 hours, cultures were treated with various concentrations of compound for 72 hours. The cultures were then fixed and stained with an anti-tubulin primary antibody (TUJ-1) and a fluorescent-tagged secondary antibody. Neurite outgrowth was determined by using the Enhanced Neurite Outgrowth (ENO) algorithm with the Cellomics ArrayScan and expressed as average neurite length or total neurite length per cell.

[2] = test system: Mesencephalic dopaminergic neuron cultures; assay: dopaminergic (3H-dopamine) uptake assay after MPP+ exposure; type: cell-based; conditions: rat E15 mesencephalic dopaminergic neurons, read-out: EC50 in dopaminergic uptake assays
Method: Mesencephalic dopaminergic neuron cultures were prepared as described in Pong et al., J. Neurochem. 69: 986-994, 1997, which is incorporated herein by reference in its entirety. Embryonic day 15 (E15) rat fetuses were collected and dissected in ice-cold phosphate-buffered saline (PBS). The ventral piece of tissue compromising the mesencephalic dopaminergic region was dissected out. Dissected pieces of tissue were pooled together and transferred to an enzymatic dissociation medium containing 20 IU/mL papain in Earle's balanced salt solution (Worthington Biochemical, Freehold, N.J., USA) and incubated for 60 minutes at 37° C. After enzymatic dissociation, the papain solution was aspirated and the tissue mechanically triturated with a fire-polished glass Pasteur pipette in complete medium (equal volumes of minimum essential medium (MEM) and F-12 nutrient mixture (GibcoBRL) supplemented with 0.1 mg/mL apotransferrin and 2.5 μg/mL insulin) containing 2,000 IU/mL DNase and 10 mg/mL ovomucoid protease inhibitor.
For dopamine uptake experiments, single-cell suspensions in complete media were seeded on poly-L-ornithine and laminin coated 24-well plates. The cultures were maintained for seven days prior to experimentation. Cultures were pretreated with various concentrations of the compound for 24 hours, then exposed to 10 mM MPP+ for 1 hour. Following the 1 hour incubation, media was exchanged three times and fresh compound was added for an additional 48 hours.
After 48 hours growth of mesencephalic dopaminergic neuron cultures following MPP+ exposure, high-affinity 3H-dopamine uptake was performed using a modified method described by Prochiantz et al., Nature 293: 570-572, 1981, which is incorporated herein by reference. Cultures were washed with pre-warmed PBS containing 5.6 mM glucose and 1 mM ascorbic acid. Cultures were then incubated for 15 minutes at 37° C. with 50 nM 3H-dopamine (31 Ci/mmol, DuPont-NEN, Wilmington, Del., USA). The cultures were washed twice with buffer and lysed with 0.5 N NaOH. The lysate was transferred to a scintillation vial containing Ultima Gold scintillation cocktail and radioactivity was determined with a liquid scintillation counter. Alternatively, culture lysates can be washed twice with buffer, incubated for 2 hours at room temperature with Optiphase Supermix scintillation cocktail (Wallac Scintillation Products, Gaithersburg, Md., USA), and radioactivity measured with a liquid scintillation counter.

rats following pMCAO = assay: Permanent occlusion of middle cerebral artery (pMCAO), behavioral deficit scoring; type: in vivo, rat; conditions: I.V. administration (10 mg/kg) following pMCAO
Method: Adult male Wistar rats (Charles River, Wilmington, Mass.) 270-300 g were anesthetized with 3% isoflurane in 70% nitrous oxide and 30% oxygen through a nose cone. Temperature was maintained at 37° C. throughout the surgery using a heating lamp. Permanent occlusion of MCAO was induced by electro cauterization of the distal portion of the MCA (via a craniotomy) with a 90 min ligation of both carotid arteries to interrupt collateral circulation (Chen S T, Hsu C Y, Hogan E L, Maricq H Balentine J D (1986) A model of focal ischemic stroke in the rat: reproducible extensive cortical infarction. Stroke 17:738-743). Compound was administered 10 mg/kg i.v. 1.5, 5.5, 24, 48, and 72 hours post ischemia. Rats were kept for 21 day for long-term functional recovery evaluation. […] Rats extending both forelimbs toward the table were scored as 0, flexing contralateral limb toward the body and/or rotating the contralateral shoulder and limb medially were scored as 1, and rolling up the body toward the contralateral side and attempting to grasp the tail were scored as 2. […] Rats retracting hind limb back on bench top immediately were scored as 0, delaying (>2 seconds) were scored as 1, and unable to retract hind limb were score as 2. […]

[3] = test system: Spinal cord neuron cultures; assay: spinal cord neuron assay; type: cell-based; conditions: rat E15 spinal cord neurons, compound for 72 h, read-out: EC50 in spinal cord neuron assays
Method: Spinal cord neuron cultures were prepared from embryonic day 15 (E15) rat embryos (Sprague-Dawley, Charles River Laboratories, Wilmington, Mass.). The embryos were collected and their spinal cords were removed in ice-cold phosphate-buffered saline (PBS) without Ca^2+ and Mg^2+. Dissected pieces of spinal cord tissue were pooled together and transferred to an enzymatic dissociation media containing 20 IU/mL papain in Earle's balanced salt solution (Worthington Biochemical, Freehold, N.J.) and incubated for 30 minutes at 37° C. After enzymatic dissociation, the papain solution was aspirated and the tissue mechanically triturated with a fire-polished Pasteur pipette in complete media [Neurobasal Medium with B-27 supplement (Gibco, Grand Island, N.Y.), 100 IU/mL penicillin, 100 μg/mL streptomycin, 3.3 μg/mL aphidicolin, 0.5 mM glutamate] containing 2,000 IU/mL DNase and 10-mg/mL ovomucoid protease inhibitor. Single-cell suspensions in complete media were plated on pre-coated poly-L-ornithine/laminin 96-well plates (Becton-Dickinson, Bedford, Mass.) at a density of 1.0×10^4 cells/well. Spinal cord neurons were maintained for 24 h then exposed to vehicle or various concentrations of compound for 72 h.

human CD4+ T cells [4] = assay: Anti-CD3/-CD28 stimulation and IL-2 re-stimulation assay; type: cell-based
Method: (§1) In the following assays, human CD4+ T cells were purified by negative selection from peripheral blood lymphocytes using RosetteSep as per manufacture's instructions (StemCell Technologies, Inc. Vancouver, British Columbia).
Tosyl-activated magnetic microspheres (Dynal, Great Neck, N.Y.) were coated with anti-CD3 Ab (1 μg/10^7 microspheres), and anti-CD28Ab (0.5 μg/10^7 microspheres) as described in Blair et al. J. Immunol., 160:12, 1998. Murine IgG was used to saturate the binding capacity of the microspheres (total protein=5 μg/10^7 microspheres). Protein-coated microspheres were added to purified CD4+ T cells (2×10^6 cells/mL, ratio 1 bead: 1 cell) and activated for 72 hours in RPMI, 10% fetal calf serum, 2 mM glutamine media. Cells were harvested, washed, and cultured overnight in fresh media and re-stimulated with IL-2 as described in Bennett et al., J. Immunol. 170:711, 2003. Briefly, overnight rested cells were recounted, plated (10^5 cells/well) in flat-bottomed 96 well microtiter plates and stimulated with 1 ng/mL human IL-2 (R&D Systems, Minneapolis, Minn.) in the presence of increasing concentrations of compound. Seventy-two hours after culture re-stimulation, plates were pulsed with 1 μCi/well tritiated thymidine and incubated for a 6-16 hour period.

human CD4+ T cells [5] = assay: PMA/ionomycin activation assay; type: cell-based; conditions: CD4+ T cells stimulated with PMA and ionomycin, tritiated thymidine incorporation, read-out: EC50, inhibition of proliferation
Method: as §1
Proliferation of the compounds was determined using this assay. CD4+ T cells (5×10^5 cells/well) were plated in flat bottomed 96 well microtiter plates in RPMI, 10% fetal calf serum, 2 mM glutamine media and stimulated with PMA (10 ng/mL) and ionomycin (200 ng/mL) in the presence of increasing concentration of compound. Seventy-two hours after activation, 100 μL of culture media was collected for IL-2 determination, an additional 100 μL fresh media was added to each well and cultures labeled with tritiated thymidine (1 μCi/well) for 6 hours. Cultures were harvested and tritiated thymidine incorporation (count per minute, CPM) assessed using a Trilux (Perkin Elmer, Shelton, Conn.). IL-2 production was determined using an ELISA as per manufacture's instructions (R&D Systems, Minneapolis, Minn.).

Row | EC50 ([2]; Neuron) | EC50 [3] | Molecule | EC50 [1] | also measured
1 |  | < 1 µM | CO[C@H]1C[C@@H]2CC[C@@H](C)[C@@](O)(O2)C(=O)C(=O)N2CCCC[C@H]2C(=O)O[C@H]([C@H](C)C[C@@H]2CC[C@@H](O)[C@H](OC)C2)CC(=O)[C@H](C)/C=C(\C)[C@@H](O)[C@@H](OC)C(=O)[C@H](C)C[C@H](C)[C@@H]2CC[C@H](/C=C/1C)ON2c1ccccc1 [Example 2, 9,27-dihydroxy-3-{2-[4-hydroxy-3-methoxycyclohexyl]-1-methylethyl}-10,21-dimethoxy-6,8,12,14,20,26-hexamethyl-37-phenyl-4,9,10,12,13,14,15,16,17,18,21,22,23,24,25,26,27,32,33,34,34a-henicosahydro-3H-23,27-epoxy-18,15-(epoxyimino)pyrido[2,1-c][1,4]oxazacyclohentriacontine-1,5,11,28,29(6H,31H)-pentone] | < 1 µM | behavior deficit scoring (rats following pMCAO): statistically significant reduction
2 |  | < 1 µM | CO[C@H]1C[C@@H]2CC[C@@H](C)[C@@](O)(O2)C(=O)C(=O)N2CCCC[C@H]2C(=O)O[C@H]([C@H](C)C[C@@H]2CC[C@@H](O)[C@H](OC)C2)CC(=O)[C@H](C)/C=C(\C)[C@@H](O)[C@@H](OC)C(=O)[C@H](C)C[C@H](C)C2C=CC(/C=C/1C)ON2c1c(Cl)cccc1Cl [Example 3, 37-(2,6-dichlorophenyl)-9,27-dihydroxy-3-{2-[4-hydroxy-3-methoxycyclohexyl]-1-methylethyl}-10,21-dimethoxy-6,8,12,14,20,26-hexamethyl-4,9,10,12,13,14,15,18,21,22,23,24,25,26,27,32,33,34,34a-nonadecahydro-3H-23,27-epoxy-18,15-(epoxyimino)pyrido[2,1-c][1,4]oxazacyclohentriacontine-1,5,11,28,29(6H,31H)-pentone] | < 1 µM | IC50 (human CD4+ T cells [4]; CD4+ T cells activated with anti-CD3/anti-CD28, re-stimulated with 1 ng/mL human IL-2, read-out: IC50, inhibition of IL-2 production): < 1 µM; IL-2 production compared with rapamycin and CCI-779 (human CD4+ T cells [4]; CD4+ T cells, IL-2 re-stimulation): commensurate; EC50 (human CD4+ T cells [5]): 0.2 to 4.9 µM

More lines, now with the values behind:

Row | Molecule | EC50 ([2]; Neuron) | EC50 [3] | EC50 [1] | also measured
3 | CO[C@H]1C[C@@H]2CC[C@@H](C)[C@@](O)(O2)C(=O)C(=O)N2CCCC[C@H]2C(=O)O[C@H]([C@H](C)C[C@@H]2CC[C@@H](OC(=O)C(C)(CO)CO)[C@H](OC)C2)CC(=O)[C@H](C)/C=C(\C)[C@@H](O)[C@@H](OC)C(=O)[C@H](C)C[C@H](C)/C=C/C=C/C=C/1C [CCI-779, reference compound] | > 1 µM |  | > 1 µM | 
4 | CO[C@H]1C[C@@H]2CC[C@@H](C)[C@@](O)(O2)C(=O)C(=O)N2CCCC[C@H]2C(=O)O[C@H]([C@H](C)C[C@@H]2CC[C@@H](OC(=O)C(C)(C)Cc3ccccn3)[C@H](OC)C2)CC(=O)[C@H](C)/C=C(\C)[C@@H](O)[C@@H](OC)C(=O)[C@H](C)C[C@H](C)C2C=CC(/C=C/1C)ON2c1ccccc1 [Example 6, 9,27-dihydroxy-3-{-2-[4-hydroxy-3-methoxycyclohexyl]-1-methylethyl}-10,21-dimethoxy-6,8,12,14,20,26-hexamethyl-37-phenyl-4,9,10,12,13,14,15,18,21,22,23,24,25,26,27,32,33,34,34a-nonadecahydro-3H-23,27-epoxy-18,15-(epoxyimino)pyrido[2,1-c][1,4]oxazacyclohentriacontine-1,5,11,28,29(6H,31H)-pentone ester with-2,2-dimethyl-3-(pyridin-2-yl)-propionic acid] | < 1 µM | < 1 µM |  | 
5 | CO[C@H]1C[C@@H]2CC[C@@H](C)[C@@](O)(O2)C(=O)C(=O)N2CCCC[C@H]2C(=O)O[C@H]([C@H](C)C[C@@H]2CC[C@@H](O)[C@H](OC)C2)CC(=O)[C@H](C)/C=C(\C)[C@@H](O)[C@@H](OC)C(=O)[C@H](C)C[C@H](C)/C=C/C=C/C=C/1C [rapamycin] | > 1 µM |  | > 1 µM | 
6 | Rapamycin phenyltriazolinedione |  |  |  | EC50 [2]: < 1 µM

Reference: patent US7795252B2, “Rapamycin analogues and the uses thereof in the treatment of neurological, proliferative, and inflammatory disorders” (Pfizer Inc., priority 2004, dated 2010)
